Data on 28 molecules can be found in ChEMBL document CHEMBL5150063, “Discovery of Orally Bioavailable N-Benzylpiperidinol Derivatives as Potent and Selective USP7 Inhibitors with In Vivo Antitumor Immunity Activity against Colon Cancer” (J Med Chem, 2022).

Chain of Ubiquitin carboxyl-terminal hydrolase 7 (Q93009 whole entry): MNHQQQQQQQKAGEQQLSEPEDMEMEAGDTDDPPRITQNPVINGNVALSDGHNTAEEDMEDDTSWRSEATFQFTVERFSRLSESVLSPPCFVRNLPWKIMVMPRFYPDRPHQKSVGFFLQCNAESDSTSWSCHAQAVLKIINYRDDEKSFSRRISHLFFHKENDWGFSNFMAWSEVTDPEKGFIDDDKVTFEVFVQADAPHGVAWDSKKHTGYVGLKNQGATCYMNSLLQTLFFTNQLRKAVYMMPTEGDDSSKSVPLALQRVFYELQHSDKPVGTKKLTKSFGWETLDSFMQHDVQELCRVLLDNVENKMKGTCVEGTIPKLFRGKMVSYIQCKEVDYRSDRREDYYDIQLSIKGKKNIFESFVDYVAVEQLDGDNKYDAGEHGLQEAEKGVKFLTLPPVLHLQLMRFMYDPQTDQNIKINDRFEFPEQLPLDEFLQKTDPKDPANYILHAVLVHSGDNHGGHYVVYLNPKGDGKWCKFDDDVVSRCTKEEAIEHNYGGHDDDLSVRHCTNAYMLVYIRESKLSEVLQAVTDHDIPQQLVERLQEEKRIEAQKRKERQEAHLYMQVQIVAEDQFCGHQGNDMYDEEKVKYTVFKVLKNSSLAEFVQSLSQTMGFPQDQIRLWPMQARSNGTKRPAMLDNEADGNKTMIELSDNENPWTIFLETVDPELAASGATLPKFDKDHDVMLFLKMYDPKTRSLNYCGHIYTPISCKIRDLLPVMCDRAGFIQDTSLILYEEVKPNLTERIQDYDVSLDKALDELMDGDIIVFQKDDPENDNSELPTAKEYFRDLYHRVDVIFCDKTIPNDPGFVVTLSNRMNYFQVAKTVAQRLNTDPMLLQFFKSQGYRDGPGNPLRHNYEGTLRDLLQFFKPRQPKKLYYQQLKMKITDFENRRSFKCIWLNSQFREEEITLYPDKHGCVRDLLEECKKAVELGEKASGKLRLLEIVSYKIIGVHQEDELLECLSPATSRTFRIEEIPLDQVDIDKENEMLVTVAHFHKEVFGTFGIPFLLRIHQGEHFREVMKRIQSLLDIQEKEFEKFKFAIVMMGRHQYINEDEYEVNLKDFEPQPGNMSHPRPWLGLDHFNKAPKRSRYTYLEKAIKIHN

The assay addresses Ubiquitin carboxyl-terminal hydrolase 7 (Homo sapiens, UniProt Q93009). The assay can be described thus: Inhibition of full-length USP7 (unknown origin) using ubiquitin-rhodamine 110 as substrate preincubated for 30 mins followed by substrate addition and measured after 2 hrs by microplate spectrophotometer analysis.
One may read the IC50 as the point on the concentration scale where inhibition reaches its midpoint. A lower IC50 goes with inhibition by little substance. As for `Cn1nc2c(=O)n(CC3(O)CCN(Cc4ccc(-c5ccco5)cc4Cl)CC3)cnc2c1-c1ccc(CO)cc1`, it took 0.0425 µM to reach half-maximal inhibition (IC50). The result for `Cn1nc2c(=O)n(CC3(O)CCN(Cc4ccc(-c5ccsc5)cc4Cl)CC3)cnc2c1-c1ccc(CN)cc1` reads 0.0595 µM. In turn, `Cn1nc2c(=O)n(CC3(O)CCN(Cc4ccc(-c5ccco5)cc4Cl)CC3)cnc2c1-c1ccc(C(N)=O)cc1` registered an IC50 of 0.0808 µM. The result for `Cn1cc(-c2ccc(CN3CCC(O)(Cn4cnc5c(-c6ccc(CN)cc6)n(C)nc5c4=O)CC3)c(Cl)c2)cn1` reads 0.291 µM. The result for `CC(=O)NCc1ccc(-c2c3ncn(CC4(O)CCN(Cc5ccc(-c6ccco6)cc5Cl)CC4)c(=O)c3nn2C)cc1` reads 0.0461 µM; that for `Cn1nc2c(=O)n(CC3(O)CCN(Cc4ccc(-c5cccs5)cc4Cl)CC3)cnc2c1-c1ccc(CN)cc1`, 0.0386 µM. The result for `Cn1nc2c(=O)n(CC3(O)CCN(Cc4ccc(-n5ccnc5)cc4Cl)CC3)cnc2c1-c1ccc(CN)cc1` reads 0.228 µM; that for `Cn1nc2c(=O)n(CC3(O)CCN(Cc4ccc(-c5ccco5)cc4Cl)CC3)cnc2c1-c1ccc(C(F)(F)F)cc1`, 0.53 µM. The molecule `Cn1nc2c(=O)n(CC3(O)CCN(Cc4ccc(C5CCCO5)cc4Cl)CC3)cnc2c1-c1ccc(CN)cc1` (stereo not drawn) returned an IC50 of 3.82 µM.

In turn, `Cn1nc2c(=O)n(CC3(O)CCN(Cc4ccc(-c5n[nH]c(=O)o5)cc4Cl)CC3)cnc2c1-c1ccc(CN)cc1` came in with an IC50 of 0.171 µM. The result for `Cn1nc2c(=O)n(CC3(O)CCN(Cc4ccc(-c5ccco5)cc4Cl)CC3)cnc2c1-c1ccc(Cl)cc1` reads 0.143 µM. Molecule `Cn1nc2c(=O)n(CC3(O)CCN(Cc4ccc(C5=CCCC5)cc4Cl)CC3)cnc2c1-c1ccc(CN)cc1` displayed an IC50 of 0.0769 µM. This IC50 is about 1.9-fold lower than that of the molecule before. Next, `Cn1nc2c(=O)n(CC3(O)CCN(Cc4ccc(-c5ccc(C(=O)O)o5)cc4Cl)CC3)cnc2c1-c1ccc(CN)cc1`: 0.753 µM; `Cn1nc2c(=O)n(CC3(O)CCN(Cc4ccc(-c5cnco5)cc4Cl)CC3)cnc2c1-c1ccc(CN)cc1`: 0.0716 µM. The result for `Cn1nc2c(=O)n(CC3(O)CCN(Cc4ccc(-c5ccco5)cc4Cl)CC3)cnc2c1-c1ccc(CNC(=O)C(F)(F)F)cc1` reads 2.06 µM; that for `Cn1nc2c(=O)n(CC3(O)CCN(Cc4ccc(-c5ncco5)cc4Cl)CC3)cnc2c1-c1ccc(CN)cc1`, 1.12 µM. `CCCNCc1ccc(-c2c3ncn(CC4(O)CCN(Cc5ccc(-c6ccco6)cc5Cl)CC4)c(=O)c3nn2C)cc1` came in with an IC50 of 0.0439 µM. Next, `Cn1nc2c(=O)n(CC3(O)CCN(Cc4ccc(-c5ccoc5)cc4Cl)CC3)cnc2c1-c1ccc(CN)cc1`: 0.177 µM; `Cn1nc2c(=O)n(CC3(O)CCN(Cc4ccc(-c5ccc[nH]5)cc4Cl)CC3)cnc2c1-c1ccc(CN)cc1`: 0.192 µM; `Cn1nc2c(=O)n(CC3(O)CCN(Cc4ccc(-c5ccco5)cc4Cl)CC3)cnc2c1-c1ccc(OC(F)F)cc1`: 0.179 µM. Consider `Cn1nc2c(=O)n(CC3(O)CCN(Cc4ccc(-c5ccco5)cc4Cl)CC3)cnc2c1-c1ccc(CNC2CC2)cc1`, for which 0.0541 µM corresponded to half-maximal inhibition (IC50). Take `Cn1nc2c(=O)n(CC3(O)CCN(Cc4ccc(-c5ccsc5Cl)cc4Cl)CC3)cnc2c1-c1ccc(CN)cc1`: it took 0.453 µM to reach half-maximal inhibition (IC50). This IC50 is about 8.4-fold higher than that of the molecule before. The result for `Cn1nc2c(=O)n(CC3(O)CCN(Cc4ccc(-c5ccco5)cc4Cl)CC3)cnc2c1-c1ccc(C(=N)N)cc1` reads 0.0875 µM. In turn, `Cn1nc2c(=O)n(CC3(O)CCN(Cc4ccc(-c5cncs5)cc4Cl)CC3)cnc2c1-c1ccc(CN)cc1` gave an IC50 of 0.117 µM. Next, `Cn1nc2c(=O)n(CC3(O)CCN(Cc4ccc(-c5ccncc5)cc4Cl)CC3)cnc2c1-c1ccc(CN)cc1`: 0.257 µM; `Cn1nc2c(=O)n(CC3(O)CCN(Cc4ccc(-n5cccn5)cc4Cl)CC3)cnc2c1-c1ccc(CN)cc1`: 0.233 µM.

`Cc1ccc(-c2ccc(CN3CCC(O)(Cn4cnc5c(-c6ccc(CN)cc6)n(C)nc5c4=O)CC3)c(Cl)c2)s1` showed a half-maximal inhibitory concentration (IC50) of 0.101 µM.

The molecule `CC(C)NCc1ccc(-c2c3ncn(CC4(O)CCN(Cc5ccc(-c6ccco6)cc5Cl)CC4)c(=O)c3nn2C)cc1` gave an IC50 of 0.0291 µM.
